The text below walks through data of PubChem BioAssay AID463199 (Broad Institute, 2010).

This assay relates to S. cerevisiae Burl-1 ts mutant growth, BacTiter-Glo, 38.5C 24 h. Kind of assay: growth induction of Burl-1 ts yeast mutant, dose response, counter-screen for SUMOylation pathway inhibitor project, whole organism, S. cerevisiae, luminescence (AID 463199). On the technique in general: Counterscreens check selectivity or assay interference.

SMILES strings stand for the structures. Active and inactive are the calls of the source.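 How the source made its calls: active means AC50, the dose giving half-maximal effect, exceeds a fixed cutoff for a compound that rescues yeast growth under heat; inactive means the rest, inconclusive results apart.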 Where only a bound is given, the exact number is not on record here.

By AC50 is commonly meant the concentration giving half of the maximal activity seen. With `CCC(C)(C)n1nnnc1C(c1ccc(OC)c(OC)c1)N1CCN(c2cccc(OC)c2)CC1` (stereo not drawn), the AC50 is > 42 µM (inactive).
The result for `CC1C(=O)CC(c2ccccc2)NC1c1ccccc1` (stereo not drawn) reads > 42 µM (inactive); that for `CC1Cc2ccccc2N1C(=O)Cn1c(=O)cc(O)c2ccccc21` (stereo not drawn), > 42 µM (inactive).
On to `CS(=O)(=O)N(CC(=O)N1CCCC1)c1cccc(Cl)c1Cl`, for which the AC50 is > 42 µM (inactive).
Under `CN(CC(=O)Nc1ccccc1Sc1ccccc1)Cc1nc2ccccc2c(=O)[nH]1` stands > 42 µM (inactive); under `N#CC1=C(N)Oc2c(ccc3ccccc23)C1c1cccs1` (stereo not drawn), > 42 µM (inactive); under `CCN(CC)C(=O)Cn1c(=O)n(CCCC(=O)NCc2ccccc2)c(=O)c2sccc21`, > 42 µM (inactive).
The result for `CC(C)(C)NC(=O)C(c1cccs1)N(Cc1cccs1)C(=O)c1ccc(CN2CCOCC2)o1` (stereo not drawn) reads > 42 µM (inactive); that for `COc1ccc(C)cc1S(=O)(=O)N1CCC(C(=O)NCCc2ccccc2)CC1`, > 42 µM (inactive).
For `Cn1c(CCN2CCOCC2)nc2cc(NC(=O)COc3ccccc3)ccc21`, the AC50 is > 42 µM (inactive).
Under `CC1CCCC(C)N1/N=C/c1cc(Br)cc(Br)c1O` (stereo not drawn) stands > 42 µM (inactive); under `O=C(NNc1ccccc1)C(CCO)C(=O)NNc1ccccc1`, > 42 µM (inactive).
Under `CCCC(O)(CCC)C(=O)NNc1ccc(C)cc1` stands > 42 µM (inactive).
Under `COc1cc2c(cc1OC)CN(C(=O)Cc1c(F)cccc1Cl)CC2` stands > 42 µM (inactive); under `COc1ccc2c(c1)OC[C@H]1[C@H]2N2C(=O)c3cc(F)ccc3NC(=O)[C@@]2(C)[C@H]1c1ccccc1`, > 42 µM (inactive); under `COc1ccccc1/C=C/C(=O)NC(=S)N1CCOCC1`, > 42 µM (inactive).
Take `O=C(COc1ccccc1)Nc1ccc(OC(F)(F)C(F)F)c(NC(=O)COc2ccccc2)c1`: the AC50 is > 42 µM (inactive).
On to `COC(=O)c1ccccc1NC(=O)c1cnn2c(C)cc(C)nc12`, for which the AC50 was > 42 µM (inactive).
Under `CS(=O)(=O)C1=NSC2=NC(=O)/C(=C\c3ccc(OS(=O)(=O)c4ccccc4)cc3)C(=N)N21` stands > 42 µM (inactive); under `CCc1c(C)c2ccc(OCC(=O)OC(C)C)c(C)c2oc1=O`, > 42 µM (inactive); under `CC(=O)Nc1ccccc1C(=O)C(=O)Nc1ccc(C(=O)NCC2CCCO2)cc1` (stereo not drawn), > 42 µM (inactive).
In the case of `CCn1nc(CC(=O)Nc2ccc(-n3cnnn3)c(C)c2)c2ccccc2c1=O`, the AC50 is > 42 µM (inactive).
Under `COc1ccc(N=Cc2c(O)n(C)c(=O)[nH]c2=O)cc1` stands > 42 µM (inactive); under `COc1cc(C(=O)N/N=C/c2ccccn2)cc(OC)c1OC`, > 42 µM (inactive).
Take `Cc1ccccc1P(=O)(CO)c1ccccc1C`: the AC50 is > 42 µM (inactive).
Under `CC(C)(C)Cc1nc(-c2ccccn2)no1` stands > 42 µM (inactive).
Consider `COc1ccc(N2CCN(C3CCCN(Cc4cccc(OC)c4)C3)CC2)cc1` (stereo not drawn), for which the AC50 was > 42 µM (inactive).
The result for `CCC1CCCCN1CCCNC(=O)C1CCC(CNS(=O)(=O)c2c(C)cc(C)cc2C)CC1` (stereo not drawn) reads > 42 µM (inactive); that for `COc1ccc(NC(=O)c2ccc(S(=O)(=O)N(C)c3ccccc3)cc2)cn1`, > 42 µM (inactive).
Under `CC(C)CN(C(=O)COC(=O)c1ccc2c(c1)OCO2)c1c(N)n(Cc2ccccc2)c(=O)[nH]c1=O` stands > 42 µM (inactive); under `O=C(NCCCn1ccnc1)Nc1cccc2ccccc12`, > 42 µM (inactive).
The result for `CSCCC(NC(=O)c1ccco1)C(=O)N1CCN(Cc2ccccc2)CC1` (stereo not drawn) reads > 42 µM (inactive).
As for `CN(CP(=O)(O)C(O)c1ccccc1)S(C)(=O)=O` (stereo not drawn), the AC50 is > 42 µM (inactive).
Under `CC(C)NC(=O)c1ccccc1-c1ccccc1` stands > 42 µM (inactive); under `CC(=O)c1c(N)[nH]c(-c2ccccc2)nc1=S`, > 42 µM (inactive); under `CCN(CC)c1ncnc2ccc(Br)cc12`, > 42 µM (inactive).
The result for `CC(C)[C@H](NC(=O)C1(c2ccccc2)CCN(C(=O)OC(C)(C)C)CC1)C(=O)O` reads > 42 µM (inactive); that for `C=C(C)Cn1c(N)cc(=O)nc1SCC(=O)Nc1cccc(C(F)(F)F)c1`, > 42 µM (inactive).
Under `N#Cc1ccc(/C=C/C(=O)c2ccco2)cc1` stands > 42 µM (inactive); under `CCOc1ccc(CCNC(=O)COC(=O)COc2ccc(C(C)=O)cc2)cc1OCC`, > 42 µM (inactive).
For `C/C(N)=C(/C#N)C(=O)CSc1nnc(-c2ccccc2)n1C`, the AC50 was > 42 µM (inactive).
For `CCC(=O)N(Cc1ccc2c(c1)OCO2)Cc1cc2cc(OC)ccc2[nH]c1=O`, the AC50 is > 42 µM (inactive).
The result for `Cc1ccc(-c2csc3ncn(CC(=O)N4CCOCC4)c(=O)c23)cc1` reads > 42 µM (inactive); that for `O=C(COC(=O)c1cc([N+](=O)[O-])ccc1N1CCOCC1)Nc1cccc(F)c1`, > 42 µM (inactive); that for `CC(=O)C(C(c1ccccc1)c1c[nH]c2ccccc12)[N+](=O)[O-]` (stereo not drawn), > 42 µM (inactive).
The result for `Cc1cc(/C=N/NC(=O)c2ccsc2)c(C)n1-c1cnccn1` reads > 42 µM (inactive).
The result for `O=C(Nc1cc(F)ccc1F)C1CCCO1` (stereo not drawn) reads > 42 µM (inactive); that for `Cn1c(-c2sc3cc(C(F)(F)F)cnc3c2-c2cccs2)n[nH]c1=S`, > 42 µM (inactive); that for `O=C(C[n+]1ccc(C(=O)N/N=C/c2ccc(Cl)cc2Cl)cc1)c1ccccc1`, > 42 µM (inactive).
Consider `Cc1onc(-c2ccccc2)c1C(=O)N/N=C/C=C/c1ccccc1`, for which the AC50 was > 42 µM (inactive).
On to `Cc1ccc(NC2CC(=O)N(c3ccc(N4CCCCC4)cc3)C2=O)cc1` (stereo not drawn), for which the AC50 was > 21 µM (inactive).
Under `Cc1ccc2nc(N/N=C/c3ccccc3F)nc(-c3ccccc3)c2c1` stands > 42 µM (inactive).
Under `CCC1C(c2ccccc2)NC(c2ccccc2)CC1(O)c1ccc(F)cc1` (stereo not drawn) stands > 42 µM (inactive); under `CCOc1ccc(C(=O)Nc2ccc(C(F)(F)F)n(C)c2=O)cc1`, > 42 µM (inactive); under `CC1Cc2ccccc2N1C(=O)CNc1cccc(S(=O)(=O)N2CCCC2)c1` (stereo not drawn), > 42 µM (inactive).
Under `CC(C)(c1ccccc1)c1ccc(OCCN2CCOCC2)cc1` stands > 42 µM (inactive); under `Cc1ccc(NC(=O)CN(C)C(=O)c2cccc(Br)c2)cc1`, > 42 µM (inactive); under `Cc1nn(CC(=O)Nc2ccccn2)c(C)c1[N+](=O)[O-]`, > 42 µM (inactive).
Turning to `COC(=O)c1cc2c(s1)-c1ccc(OC)cc1CC2`, the AC50 is > 42 µM (inactive).
With `CCCc1nc(NCc2ccccc2)c(C#N)c2c1CCCC2`, the AC50 was > 42 µM (inactive).
The result for `O=C(NCc1ccco1)c1ccc(Br)c(S(=O)(=O)N2CCCCC2)c1` reads > 42 µM (inactive); that for `CCCCC(O)(c1ccc(F)cc1)C(CN1CCOCC1)c1ccc(Cl)cc1` (stereo not drawn), > 21 µM (inactive).
As to `O=C(OCc1nc2ccsc2c(=O)[nH]1)c1ccco1`, the AC50 was > 42 µM (inactive).
The result for `C[C@@]12C(=O)Nc3cc(F)ccc3C(=O)N1[C@H]1c3ccccc3OC[C@@H]1[C@@H]2c1ccccc1` reads > 42 µM (inactive); that for `COC(=O)c1ccc(NC(=O)CCN2CCN(c3ccccc3)CC2)cc1`, > 42 µM (inactive); that for `O=C(O)COc1ccc(=O)n(-c2ccccc2)n1`, > 42 µM (inactive).
The result for `Cc1ccc(C)n1-c1ccc(N(C)C)cc1` reads > 42 µM (inactive).
Consider `CC(C)(CNC(=O)c1cccs1)CNC(=O)c1cccs1`, for which the AC50 was > 42 µM (inactive).
Turning to `COc1ccc(C2NC(=O)c3ccccc3O2)cc1` (stereo not drawn), the AC50 was > 42 µM (inactive).
Under `Cc1ccc(NC(=O)Nc2cccc(C(F)(F)F)c2)nc1` stands > 42 µM (inactive).
With `COc1ccc2c(c1)[C@H]1[C@H](CO2)[C@H](c2ccccc2)[C@]2(C)C(=O)Nc3cc(C)ccc3C(=O)N12`, the AC50 was > 42 µM (inactive).
Under `S=C(Nc1ccccc1Cl)N1CCOCC1` stands > 42 µM (inactive); under `CCN(Cc1ccccc1)Cc1ccc(OCc2ccccc2)c(OC)c1`, > 42 µM (inactive); under `COc1ccc(C2=NN(C(=S)Nc3ccccc3)C(c3ccccc3)C2)cc1` (stereo not drawn), > 42 µM (inactive).
For the molecule `O=C(COc1cnc2ccccc2n1)NCCC1=CCCCC1`, the AC50 is > 42 µM (inactive).
Under `O=C1CC(c2ccccc2)c2ccc(O)cc2O1` (stereo not drawn) stands > 42 µM (inactive).
For `COc1cc(OC)c(C(=O)N2CCN(c3ccccn3)CC2)cc1OC`, the AC50 is > 42 µM (inactive).
For `Cc1ccccc1C(=O)/C=C1\NC(=O)CS1`, the AC50 was > 21 µM (inactive).
Under `O=C(CP(=O)(c1ccccc1)c1ccccc1)N1CCOCC1` stands > 42 µM (inactive); under `O=C(c1ccco1)N1CCN(CC(=O)N2c3ccccc3CCc3ccccc32)CC1`, > 42 µM (inactive).
The result for `CCCCOC(=O)/C(=C/C=C/c1ccccc1)NC(=O)c1ccccc1` reads > 42 µM (inactive).
As to `Cc1ccc(O)c(CNc2nc3ccccc3n2C)c1`, the AC50 is > 42 µM (inactive).
Under `CC1(C)NC(=O)N(CCCOc2ccccc2Br)C1=O` stands > 42 µM (inactive); under `O=C(c1cc(-c2ccc(Cl)cc2)n(-c2ccc(Cl)cc2)n1)N1CCOCC1`, > 42 µM (inactive).
The result for `COCCN(C(=O)CSc1nnc(-c2ccc(C)cc2)n1N)c1c(N)n(Cc2ccccc2)c(=O)[nH]c1=O` reads > 42 µM (inactive); that for `Cc1ccc(NS(=O)(=O)c2csc(C(N)=O)c2)cc1C`, > 42 µM (inactive).
Under `CCOC(=O)N1CCN(C(=O)c2ccc(OC)c(OC)c2)CC1` stands > 42 µM (inactive); under `CN(C)c1ccnc2sc3c(NCC(O)CO)ncnc3c12` (stereo not drawn), > 42 µM (inactive).
